Among the test systems are HCT-116 colon; EKVX NSCLC; SW-620 colon; OVCAR-5 ovarian; HOP-62 NSCLC; A549 NSCLC; SK-OV-3 ovarian; RPMI-8226 leukemia; COLO 205 colon.
Assay in all cases: NCI-60 cell line screen, 48 h

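These data come from cells grown in 96-well plates and exposed to compound for 48 hours at five concentrations. The concentration for full growth arrest is given as TGI.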 Bounds are passed on as bounds.

We go through 15 compounds from PubChem BioAssay (NCI).

As for `CC(=NCCN(CCN=C(C)c1c(O)cc(C)oc1=O)CCN=C(C)c1c(O)cc(C)oc1=O)c1c(O)cc(C)oc1=O`, the TGI in the experiment with HCT-116 colon, in the experiment on EKVX NSCLC, with SW-620 colon, with OVCAR-5 ovarian, with HOP-62 NSCLC and with A549 NSCLC was > 100 µM each time. Further, the TGI in the experiment with SK-OV-3 ovarian, in the experiment on RPMI-8226 leukemia and with COLO 205 colon was > 100 µM in each case.
`O=C(OCCN1CCCCC1)C(c1ccccc1)C1(O)CCSCC1` (configuration not stated): the TGI with HCT-116 colon, in the experiment on EKVX NSCLC, with SW-620 colon, with OVCAR-5 ovarian, in the experiment on HOP-62 NSCLC and in the experiment on A549 NSCLC was > 100 µM each time. Besides, the TGI in the experiment on SK-OV-3 ovarian, in the experiment on RPMI-8226 leukemia and in the experiment with COLO 205 colon was > 100 µM each time.
Regarding `CC(C)(C)OC(=O)NC(Cc1ccc(O)cn1)C(N)=O` (configuration not stated), the TGI in the experiment on HCT-116 colon, in the experiment on EKVX NSCLC, in the experiment on SW-620 colon, in the experiment on OVCAR-5 ovarian, in the experiment on HOP-62 NSCLC and with A549 NSCLC was > 100 µM throughout. Besides, the TGI in the experiment on RPMI-8226 leukemia and with COLO 205 colon was > 100 µM in each case.
Regarding `COc1ccc(C(=C(I)c2ccccc2)c2ccc(OC)cc2)cc1`, the TGI in the experiment on HCT-116 colon, with EKVX NSCLC, in the experiment on SW-620 colon, in the experiment with OVCAR-5 ovarian, in the experiment on HOP-62 NSCLC and in the experiment with A549 NSCLC was > 100 µM in each case. The TGI with SK-OV-3 ovarian, with RPMI-8226 leukemia and with COLO 205 colon was > 100 µM each time.
Consider `O=C1C=C2CO[C@H]3OC[C@H](O)[C@@H]1[C@@H]23`, for which the TGI in the experiment with HCT-116 colon, with EKVX NSCLC, with SW-620 colon, in the experiment on OVCAR-5 ovarian, in the experiment with HOP-62 NSCLC and with A549 NSCLC was > 100 µM each time. Besides, the TGI in the experiment on SK-OV-3 ovarian was > 100 µM; in the experiment with RPMI-8226 leukemia, 44.8 µM; in the experiment with COLO 205 colon, 30 µM.
With `NCCNCCCCCCNC(=O)c1cccc2cc3ccccc3nc12`, the TGI turned out to be 6.33 µM in the experiment on HCT-116 colon; 20.9 µM in the experiment with EKVX NSCLC; 4.78 µM in the experiment with SW-620 colon; 14 µM in the experiment on OVCAR-5 ovarian; 4.68 µM in the experiment with HOP-62 NSCLC; 5.63 µM in the experiment with A549 NSCLC. Moreover, the TGI in the experiment with RPMI-8226 leukemia is 6.82 µM; with COLO 205 colon it was 13.2 µM.
For `CCCC(CC)c1c(O)c(O)c(C(CC)CCC)c(C(CC)CCC)c1C(CC)CCC` (configuration not stated), the TGI with HCT-116 colon, in the experiment on EKVX NSCLC, in the experiment on SW-620 colon, with OVCAR-5 ovarian, with HOP-62 NSCLC and in the experiment on A549 NSCLC was > 10 µM in each case. Further, the TGI in the experiment on SK-OV-3 ovarian, in the experiment with RPMI-8226 leukemia and with COLO 205 colon was > 10 µM each time.
As to `N#Cc1c(N2CCCC2)ncn(Cc2ccccc2)c1=S`, the TGI in the experiment with HCT-116 colon, with EKVX NSCLC, in the experiment with SW-620 colon, in the experiment with OVCAR-5 ovarian, in the experiment with HOP-62 NSCLC and in the experiment on A549 NSCLC was > 100 µM in each case. Also, the TGI in the experiment on SK-OV-3 ovarian, in the experiment with RPMI-8226 leukemia and in the experiment on COLO 205 colon was > 100 µM throughout.
As to `c1cc(C[S+]2CCCC2)ccc1C[S+]1CCCC1`, the TGI in the experiment on HCT-116 colon, with EKVX NSCLC, with SW-620 colon, with OVCAR-5 ovarian, in the experiment with HOP-62 NSCLC and in the experiment with A549 NSCLC was > 100 µM each time. Moreover, the TGI with SK-OV-3 ovarian, with RPMI-8226 leukemia and in the experiment on COLO 205 colon was > 100 µM in each case.
As for `O=C(Nc1nnc(-c2ccccc2)o1)C(SC(=S)N1CCOCC1)c1ccccc1` (configuration not stated), the TGI was > 100 µM in the experiment with HCT-116 colon; 55.5 µM with EKVX NSCLC; > 100 µM with SW-620 colon; 88.8 µM with OVCAR-5 ovarian; > 100 µM in the experiment with HOP-62 NSCLC; > 100 µM with A549 NSCLC. The TGI with SK-OV-3 ovarian, in the experiment on RPMI-8226 leukemia and in the experiment with COLO 205 colon was > 100 µM throughout.
In the case of `C=CC(C)(C)N[C@@H](C(=O)N1CCC[C@H]1c1nc(-c2nc(C(=O)OCC=C(C)C)c(C)o2)c(C)o1)C(C)C`, the TGI in the experiment on HCT-116 colon was 38.6 µM; with EKVX NSCLC it was > 100 µM; with SW-620 colon, 53.8 µM; in the experiment with OVCAR-5 ovarian, > 100 µM; with HOP-62 NSCLC it was 51.7 µM; in the experiment on A549 NSCLC, > 100 µM. Moreover, the TGI in the experiment on SK-OV-3 ovarian stood at 86.8 µM; with RPMI-8226 leukemia it was 61.8 µM; in the experiment with COLO 205 colon, 52.1 µM.
Regarding `O=C(NCCCCNCCCNC(=O)c1ccccc1)c1ccccc1`, the TGI with HCT-116 colon, in the experiment on EKVX NSCLC, in the experiment with SW-620 colon, with OVCAR-5 ovarian, with HOP-62 NSCLC and with A549 NSCLC was > 100 µM in each case. The TGI with SK-OV-3 ovarian, with RPMI-8226 leukemia and in the experiment with COLO 205 colon was > 100 µM throughout.
For `COCN1CCN=c2c1c1c3c(c4ccccc4n23)CCC1`, the TGI in the experiment with HCT-116 colon, with EKVX NSCLC, in the experiment on SW-620 colon, in the experiment with OVCAR-5 ovarian, with HOP-62 NSCLC and in the experiment on A549 NSCLC was > 100 µM in each case. Also, the TGI in the experiment with SK-OV-3 ovarian, with RPMI-8226 leukemia and with COLO 205 colon was > 100 µM in each case.
Turning to `N#CC(C#N)=Cc1c(O)ccc2ccccc12`, the TGI in the experiment on HCT-116 colon was determined as 30.9 µM; in the experiment with EKVX NSCLC, 26.3 µM; in the experiment on SW-620 colon, 34.5 µM; with OVCAR-5 ovarian, 31.7 µM; in the experiment on HOP-62 NSCLC, 50.2 µM; with A549 NSCLC, 38 µM. The results for the TGI in the experiment on SK-OV-3 ovarian, in the experiment with RPMI-8226 leukemia and in the experiment with COLO 205 colon were 34.7 µM, 38.6 µM and 44.5 µM, respectively.
Take `OCC(O)C1OC2CC1Nc1ccccc1N2` (configuration not stated): the TGI in the experiment on HCT-116 colon, in the experiment with EKVX NSCLC, in the experiment on SW-620 colon, with HOP-62 NSCLC, in the experiment with A549 NSCLC and with SK-OV-3 ovarian was > 100 µM in each case. The TGI in the experiment on RPMI-8226 leukemia and with COLO 205 colon was > 100 µM each time.
